In patent publication US10280179B2, “Spiroquinoxaline derivatives as inhibitors of non-apoptotic regulated cell-death” (Helmholtz Zentrum Munchen—Deutches Forschungszentrum Fur …, priority 2013, dated 2019):

Key:
Type in all cases: cell-based
[1] = Cellular toxicity, same assay as Example B.4 without TAM (Example B.5); conditions: mouse; Pfa1 cells without TAM; read-out: TC50 (the source's name)
Description: Cellular Toxicity of Compounds of the Invention
An estimate of the toxicity for compounds of the invention was obtained by using the same assay as described in Example B.4, but without the addition of TAM. […] Such TC50 values obtained for certain compounds disclosed herein, together with an approximate therapeutic window (estimated by dividing each TC50 by the corresponding IC50 determined from example B.4) are shown in Table 3.

[2] = system: mouse hippocampal cell line (Ht22); test: Inhibition of glutamate-induced non-apoptotic cell death (Example B.2); conditions: HT-22, Ht22 cells, glutamate-induced cell death, read-out: Ht22/GLU
Description: Inhibition of Glutamate-Induced Non-Apoptotic Cell Death by Compounds of the Present Invention
Glutamate toxicity is conferred on cells from the mouse hippocampal cell line (Ht22) by inhibition of the cysteine/glutamate antiporter, System xc-, leading to impaired cysteine uptake and subsequent GSH depletion. This model is frequently used for mimicking glutathione depletion following oxidative stress in stroke, brain trauma and other neurodegenerative diseases and cellular conditions following ischemia (for example: van Leyen et al, J. Neurochem. 92:824-30 (2005)).
Compounds disclosed herein were evaluated for their ability to promote cell survival upon administration of a lethal dose of glutamate (GLU) to the cell-culture medium.
Briefly, Ht22 cells (ATCC) were propagated DMEM supplemented with 10% FBS/1% Penicillin-Streptomycin, and then seeded onto 96-well plates at a concentration of 2,000 cells/well in 100 μL of MEDIA, simultaneously with glutamate (Sigma Aldrich) to a final concentration of 5 mM, together with increasing concentrations of the compound to be tested (0.5 pM to 100 μM), and the plates incubated at 37° C./5% CO2 for 72 hours. Compound dilutions were prepared from 10 mM stocks dissolved in DMSO and diluted in media. Cells treated with glutamate alone were used as negative control and alpha-tocopherol (Sigma Aldrich) was used as positive control. Compound concentrations were tested in triplicate. After incubation, cell survival was detected and quantified as described in Example B.1.

[3] = system: Pfa1 cells; test: Inhibition of non-apoptotic cell death after tamoxifen-induced GPx4 knockout in a recombinant cell line (Example B.4); conditions: Mus musculus, read-out: Pfa1/TAM IC50
Description: Inhibition of Non-Apoptotic Cell-Death by Compounds Disclosed Herein Using a Recombinant Cell Line
To combat high intracellular ROS levels, mammalian cells have evolved an intricate network of ROS scavenging in cells, in which the thioredoxin and glutathione (GSH) dependent systems prevail. […] Knockout of GPx4 in neurons causes massive neurodegeneration in cortical, cerebellar and hippocampal neurons underscoring the high relevance of ROS-induced cell death signaling in the brain. Briefly, immortalised fibroblasts from these mice were made to contain tamoxifen-inducible CreERT2, which catalyzes the functional ablation of both copies of GPx4 and resulting in a complete knockout of GPx4, a massive ROS burst, and cell death in cell culture. These cells (Pfa1 cells) were used to characterize compounds of the present invention, whereby tamoxifen (TAM) was given on day 0 along with the compound under test, and 72 hours later cell survival was evaluated using AlamarBlue.

| Structure (SMILES) | CC50 [1] | IC50 [2] | IC50 [3] |
| --- | --- | --- | --- |
| Clc1ccc(CNC2=Nc3ccccc3NC23CCCCC3)cc1 [C-3] | 20000 to 50000 nM | < 500 nM | < 200 nM |
| Fc1cccc(CNC2=Nc3ccccc3NC23CCCCC3)c1 [C-5] | 20000 to 50000 nM | < 5000 nM | < 500 nM |
| Cc1cccc(CNC2=Nc3ccccc3NC23CCCCC3)c1 [C-11] | 10000 to 20000 nM | < 1000 nM | < 500 nM |
| FC(F)(F)c1cccc(CNC2=Nc3ccccc3NC23CCCCC3)c1 [C-23] | 10000 to 20000 nM | < 500 nM | < 50 nM |
| COc1cccc(CNC2=Nc3ccccc3NC23CCCCC3)c1 [C-47] | 20000 to 50000 nM | < 1000 nM | < 500 nM |
| Fc1cc(Cl)ccc1CNC1=Nc2ccccc2NC12CCCCC2 [C-61] | 20000 to 50000 nM | < 500 nM | < 200 nM |
| Clc1cccc(CCNC2=Nc3ccccc3NC23CCCCC3)c1 [C-79] | 2000 to 5000 nM | < 500 nM | < 500 nM |
| Cc1cc2c(cc1C)NC1(CCCCC1)C(NCc1ccccc1)=N2 [C-218] | 20000 to 50000 nM | < 100 nM | < 100 nM |
| c1ccc(CNC2=Nc3ccccc3NC23CCCC3)cc1 [C-219] | 20000 to 50000 nM | < 5000 nM | < 2000 nM |
| Clc1ccc(CNC2=Nc3ccccc3NC23CCCCCC3)cc1 [C-220] | 10000 to 20000 nM | < 500 nM | < 200 nM |
| c1ccc(CCCNC2=Nc3ccccc3NC23CCCCC3)cc1 [C-221] | 5000 to 10000 nM | < 1000 nM | < 1000 nM |
| Fc1cccc(F)c1CNC1=Nc2ccccc2NC12CCCCC2 [C-222] | 20000 to 50000 nM | < 1000 nM | < 200 nM |
| COc1cccc(CNC2=Nc3ccccc3NC23CCCCCC3)c1 [C-224] | 20000 to 50000 nM | < 1000 nM | < 500 nM |
| Cc1cc(C)cc(CNC2=Nc3ccccc3NC23CCCCC3)c1 [C-225] | 10000 to 20000 nM | < 500 nM | < 500 nM |
| c1ccc(CCNC2=Nc3ccccc3NC23CCCCC3)cc1 [C-226] | 10000 to 20000 nM | < 2000 nM | < 1000 nM |
| c1ccc(C(CNC2=Nc3ccccc3NC23CCCCC3)c2ccccc2)cc1 [C-229] | 2000 to 5000 nM | < 1000 nM | < 200 nM |
| Clc1ccc(CNC2=Nc3ccccc3NC23CCCCC3)c(Cl)c1 [C-230] | 20000 to 50000 nM | < 500 nM | < 100 nM |
| Fc1ccc(CNC2=Nc3ccccc3NC23CCCCC3)c(F)c1 [C-231] | 20000 to 50000 nM | < 1000 nM | < 500 nM |
| c1ccc(CCCCNC2=Nc3ccccc3NC23CCCCC3)cc1 [C-232] | 20000 to 50000 nM | < 1000 nM | < 2000 nM |

| Structure (SMILES) | CC50 [1] | IC50 [2] | IC50 [3] |
| --- | --- | --- | --- |
| CC(CCc1ccccc1)NC1=Nc2ccccc2NC12CCCCC2 (centres unmarked) [C-233] | 20000 to 50000 nM | < 1000 nM | < 1000 nM |
| Clc1cccc(CNC2=Nc3cc(Cl)c(Cl)cc3NC23CCCCCC3)c1 [C-234] | 20000 to 50000 nM | < 500 nM | < 500 nM |
| Clc1cc2c(cc1Cl)NC1(CCCCCC1)C(NCc1ccccc1)=N2 [C-235] | 10000 to 20000 nM | < 500 nM | < 200 nM |
| c1ccc(CNC2=Nc3ccccc3NC23CCCCCCC3)cc1 [C-236] | 10000 to 20000 nM | < 500 nM | < 500 nM |
| Clc1cc2c(cc1Cl)NC1(CCCCCCC1)C(NCc1ccccc1)=N2 [C-237] | 10000 to 20000 nM | < 500 nM | < 500 nM |
| Fc1cc2c(cc1F)NC1(CCCCC1)C(NCc1ccccc1)=N2 [C-238] | 20000 to 50000 nM | < 200 nM | < 500 nM |
| Cc1cc2c(cc1C)NC1(CCCCCC1)C(NCc1ccccc1)=N2 [C-239] | 10000 to 20000 nM | < 200 nM | < 200 nM |
| Fc1cccc(F)c1CNC1=Nc2cc(Cl)c(Cl)cc2NC12CCCCC2 [C-240] | 5000 to 10000 nM | < 200 nM | < 500 nM |
| Cc1cc2c(cc1C)NC1(CCCCCCC1)C(NCc1ccccc1)=N2 [C-241] | 5000 to 10000 nM | < 200 nM | < 500 nM |
| Fc1ccc(CNC2=Nc3ccccc3NC23CCCCCC3)c(F)c1 [C-242] | 10000 to 20000 nM | < 1000 nM | < 1000 nM |
| Clc1cc2c(cc1Cl)NC1(CCCCCC1)C(NCc1ccccc1Cl)=N2 [C-243] | 10000 to 20000 nM | < 1000 nM | < 500 nM |
| CC(NC1=Nc2ccccc2NC12CCCCC2)c1ccccc1 (centres unmarked) [C-244] | 10000 to 20000 nM | < 1000 nM | < 1000 nM |
| Cc1cccc(CNC2=Nc3cc(Cl)c(Cl)cc3NC23CCCCC3)c1 [C-268] | 10000 to 20000 nM | < 500 nM | < 100 nM |
| CC(C)(C)c1ccc(CNC2=Nc3ccccc3NC23CCCCC3)cc1 [C-269] | 5000 to 10000 nM | < 500 nM | < 200 nM |
| Fc1cccc(CNC2=Nc3ccccc3NC23CCNCC3)c1 [N-5] | 5000 to 10000 nM | < 50 nM | < 100 nM |
| COc1cccc(CNC2=Nc3ccccc3NC23CCNCC3)c1 [N-14] | 20000 to 50000 nM | < 200 nM | < 500 nM |
| Clc1ccc(CNC2=Nc3ccccc3NC23CCNCC3)c(Cl)c1 [N-56] | 1000 to 2000 nM | < 50 nM | < 10 nM |
| Clc1cccc(CCNC2=Nc3ccccc3NC23CCNCC3)c1 [N-79] | 2000 to 5000 nM | < 50 nM | < 100 nM |
| Cc1cc2c(cc1C)NC1(CCNCC1)C(NCc1cccc(Cl)c1)=N2 [N-111] | 1000 to 2000 nM | < 10 nM | < 10 nM |

| Structure (SMILES) | CC50 [1] | IC50 [2] | IC50 [3] |
| --- | --- | --- | --- |
| Clc1cccc(CNC2=Nc3cc(Cl)c(Cl)cc3NC23CCNCC3)c1 [N-115] | 200 to 500 nM | < 50 nM | < 10 nM |
| c1ccc(CNC2=Nc3ccccc3NC23CCNCC3)cc1 [N-206] | 20000 to 50000 nM | < 500 nM | < 200 nM |
| Clc1cc2c(cc1Cl)NC1(CCNCC1)C(NCc1ccccc1Cl)=N2 [N-207] | 500 to 1000 nM | < 50 nM | < 10 nM |
| Clc1ccc(CNC2=Nc3cc(Cl)c(Cl)cc3NC23CCNCC3)cc1 [N-208] | 500 to 1000 nM | < 50 nM | < 10 nM |
| CN1CCC2(CC1)Nc1ccccc1N=C2NCc1ccccc1Cl [N-209] | 5000 to 10000 nM | < 500 nM | < 100 nM |
| Clc1ccc(CNC2=Nc3ccccc3NC23CCNCC3)cc1Cl [N-211] | 1000 to 2000 nM | < 50 nM | < 10 nM |
| c1ccc(CNC2=Nc3ccccc3NC23CCCNCC3)cc1 (centres unmarked) [N-212] | 10000 to 20000 nM | < 1000 nM | < 1000 nM |
| CN1CCC2(CC1)Nc1ccccc1N=C2NCc1ccc(Cl)cc1 [N-213] | 5000 to 10000 nM | < 200 nM | < 100 nM |
| Cc1cc2c(cc1C)NC1(CCNCC1)C(NCc1ccc(Cl)cc1)=N2 [N-214] | 1000 to 2000 nM | < 50 nM | < 10 nM |
| CN1CCC2(CC1)Nc1ccccc1N=C2NCc1cccc(C(F)(F)F)c1 [N-215] | 5000 to 10000 nM | < 50 nM | < 50 nM |
| CCCCCCCC(=O)N1CCC2(CC1)Nc1ccccc1N=C2NCc1ccccc1 [N-216] | 10000 to 20000 nM | < 500 nM | < 500 nM |
| CC(NC1=Nc2ccccc2NC12CCNCC2)c1ccccc1 (centres unmarked) [N-218] | 20000 to 50000 nM | < 500 nM | < 500 nM |
| Fc1ccc(CNC2=Nc3ccccc3NC23CCNCC3)c(F)c1 [N-221] | 20000 to 50000 nM | < 200 nM | < 200 nM |
| CC(CCc1ccccc1)NC1=Nc2ccccc2NC12CCNCC2 (centres unmarked) [N-222] | 20000 to 50000 nM | < 50 nM | < 200 nM |
| Cc1cccc(CNC2=Nc3cc(Cl)c(Cl)cc3NC23CCNCC3)c1 [N-224] | 1000 to 2000 nM | < 50 nM | < 10 nM |
| c1ccc(CCCCNC2=Nc3ccccc3NC23CCNCC3)cc1 [N-225] | 1000 to 2000 nM | < 1000 nM | < 50 nM |
| c1ccc(CCNC2=Nc3ccccc3NC23CCNCC3)cc1 [N-226] | 10000 to 20000 nM | < 100 nM | < 100 nM |
| CC(C)(C)c1ccc(CNC2=Nc3ccccc3NC23CCNCC3)cc1 [N-227] | 500 to 1000 nM | < 10 nM | < 10 nM |
| O=S1(=O)CCC2(CC1)Nc1cc(Cl)c(Cl)cc1N=C2NCc1ccccc1 [O/S-360] | – | < 2000 nM | < 2000 nM |
